Experimental findings from patent publication US20250180567A1, “METHOD FOR MEASURING GL[…] ANTIGEN PROTEIN OF HBV” (RCMG Inc., priority 2021, published 2025) are described below.

Test [1] deals with glycosylated recombinant HBs antigen protein. Description: sandwich ELISA of immobilized HBs antibody (HBsAgGi) and biotinylated lectins. It is filed as binding, hepatitis B virus. The conditions noted are these: FIG. 1; for detection of N-glycosylated S-HBs as a specific positive signal (ELISA absorbance): lectin-biotin 1 μg/mL, absorbance at 450 nm. The method, then: A purified antibody against HBs antigen protein (HBsAgGi) was immobilized on a plate, and a sandwich ELISA system was constructed to examine the optimal lectin to be used for detecting the capturedHBs antigen.
1) HBsAgGi (5 μg/mL) diluted with BSA (5 μg/mL)/PBS was added to a Nunc Immobilizer Amino Plate at a volume of 0.1 mL per well, and the plate was shaken at room temperature for 4 hours to immobilize the antibody. After washing twice with PBS-T, 0.3 mL of TBS was added per well and the plate was allowed to stand overnight at 4° C. for blocking. 2) After washing with PBS-T, glycosylated recombinant HBs antigen protein was diluted to 400 ng/ml with Sample dilution buffer (3% BSA/TBS-T), 0.1 mL thereof was added per well, and the plate was shaken at room temperature for 2.5 hours to be captured the antigen on the antibody solid-phased plate. In order to confirm the effect of the serum, recombinant HBs antigen to which 5% Normal human serum (NHS) was added was also treated in the same manner. 3) After washing the wells four times with PBS-T, the wells were reacted with the following lectins diluted with PBS-T at room temperature for 2 hours by shaking.
Jacalin-biotin (1 μg/mL), MAL II-biotin (1 μg/mL), RCA120-biotin (1 μg/mL), SNA-biotin (1 μg/mL), SSA-biotin (1 μg/mL), WGA-biotin (1 μg/mL) 4) After washing four times with PBS-T, the wells were reacted with Peroxidase-conjugated Streptavidin (1/20,000 dilution) or SSA-HRP (2 μg/mL) diluted with PBS-T at room temperature for 1 hour by shaking.
5) After washing the wells four times with PBS-T, 0.1 mL of 1Step Ultra TMB-ELISA was added per well and allowed to react for 5 min, then 50 μL of 1 mol/L sulfuric acid was added to stop the reaction. After the reaction was stopped, the absorbance at 450 nm was immediately measured by a plate reader.

A further test deals with glycosylated S-HBs. Description: lectin-antibody combination ELISA using sera from chronic hepatitis B patients. The class given is binding, hepatitis B virus. Particulars: actual sera from chronic hepatitis B patients; lectin combined with S-HBs antibody. The method, then:
This finding means that the glycosylated chains attached to S-HBs bind to WGA, which is completely unexpected.
Sera from untreated (no treatment history with nucleic acid analogs) chronic hepatitis B patients (HBs antigen positivity persisting for 6 months or more) (n=4) were used before (0) weeks) and 48 weeks after nucleic acid analog treatment. 1) HBsAg antibody (Hyb-824, 5 μg/mL) diluted with BSA (5 μg/mL)/PBS was added to a Nunc Immobilizer Amino Plate in an amount of 0.1 mL per well, and the plate was shaken at room temperature for 2 hours to immobilize the antibody. After washing twice with PBS-T, 0.3 mL of TBS was added per well and the wells were allowed to stand at 4° C. overnight for blocking. 2) After washing the wells with PBS-T, patient samples (before treatment and 48 weeks after treatment) were diluted 1/20 and 1/100 with Sample dilution buffer (3% BSA/TBS-T), and 0.1 mL was added per well, and the plate was shaken at room temperature for 1.5 hours to capture the antigen onto the antibody-immobilized plate. […] After the reaction was stopped, the absorbance at 450 nm was immediately measured by a plate reader.

Turning to Salvia sclarea agglutinin [SSA lectin], the “detection of N-glycosylated S-HBs as a specific positive signal (ELISA absorbance)” value in test [1] is given as “could not detect”. The “specificity of detection of glycosylated S-HBs in patient sera” value with glycosylated S-HBs is on record as “unexpectedly low”.

On to wheat germ agglutinin [WGA lectin], for which the “effect of NHS added to the sample on lectin detection” value in test [1] (5% Normal human serum (NHS) added to recombinant HBs antigen) is listed as “not affected”. The “reaction of the lectin with the solid-phased antibody” value in test [1] (antibody HBsAgGi immobilized on plate) is given as “did not react”. Also, the “detection of N-glycosylated S-HBs as a specific positive signal (ELISA absorbance)” value in test [1] is on record as “very clear detection”. The “specificity of detection of glycosylated S-HBs in patient sera” value in the test with glycosylated S-HBs is listed as “could specifically detect”.
